Laboratory results from PMC13360702, “An Agonist/Antagonist Photo‐Switchable Vitamin D Mimetic Enables Bidirectional Optical Control of VDR” (Angewandte Chemie (International Ed. in English), 2026).
Like-named read-outs stand apart in the source and are kept apart here.

Tests used:
VDR = target: T1, VDR (Homo sapiens, UniProt P11473); experiment: Gal4‐VDR hybrid reporter gene assay, agonist mode; type: cell-based; settings: for EC50: HEK293T cells, mean±S.E.M., n≥3
T1 construct: -CMV-VDR-LBD coding for the hinge region and; expressed in transfected cells; host or cells: HEK293T
T1 sequence (P11473 127-423 limits assumed): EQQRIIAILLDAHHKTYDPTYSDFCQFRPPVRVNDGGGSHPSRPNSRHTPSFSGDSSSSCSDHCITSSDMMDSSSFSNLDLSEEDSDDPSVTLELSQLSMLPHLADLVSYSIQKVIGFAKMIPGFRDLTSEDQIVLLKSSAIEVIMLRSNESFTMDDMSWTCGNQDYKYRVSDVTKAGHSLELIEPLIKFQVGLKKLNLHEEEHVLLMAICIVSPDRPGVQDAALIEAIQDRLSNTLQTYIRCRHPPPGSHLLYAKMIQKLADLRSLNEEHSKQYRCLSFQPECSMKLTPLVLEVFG
Method: FIGURE 2 Development and characterization of the light‐activated vitamin D mimetic photo‐vitD (10). (a) Structure activity relationship of photo‐switchable VDR agonists 4–10. Compounds were tested in a cellular Gal4‐VDR hybrid reporter gene assay. Relative activation is normalized to the effect of 2 (1 µM) set as 100% activation. The (Z)‐states of the compounds were maintained with a Cell‐Disco [24] (370 nm). […] Data in agonist (EC50) and antagonist mode (IC50; vs. 0.3 µM 2) are shown for (E)‐ and (Z)‐10. The corresponding dose‐response curves are shown in (d). (b) Predicted binding mode of (E)‐7 (green) in the VDR ligand binding site (pdb ID 4g1d). […] (c) Predicted binding mode of (Z)‐10 (yellow) in the VDR ligand binding site. The altered regiochemistry conveys strong preference for the light‐induced (Z)‐configuration and the extended naphthoic acid motif enables a strong ionic contact to R302. (d) Dose‐response curves of (E)‐ (dark) and (Z)‐10 (370 nm) in the Gal4‐VDR reporter gene assay in agonist (top) and antagonist mode (bottom, with 0.3 µM calcitriol (2)). (Z)‐10 activated VDR; (E)‐10 and (Z)‐10 antagonized VDR activation by 0.3 µM calcitriol (2). (Z)‐10 was maintained with a Cell‐Disco [24] (370 nm). Data are the mean±S.E.M. relative VDR act. vs. 0.3 µM calcitriol (2), n≥3. (e) Activity profile of 10 (1 µM) on nuclear receptors showing exclusive VDR activation by the light‐activated state. 10 was tested in a panel of uniform Gal4‐NR hybrid reporter gene assays. (Z)‐10 was maintained with a Cell‐Disco [24] (370 nm). Data are the mean±SD, n = 3. (f) Representative UV/Vis spectra of 10 as (E)‐ (dark) and (Z)‐states (PSS 365 nm), and after switching back to (E) with 465 nm. (g) (E)/(Z)‐ratios of 10 in the dark‐adapted state, after illumination at 365 nm for 5 min and after switching back from mostly‐(Z) with 465 nm for 5 min. (h) 10 could be rapidly and reversibly switched between the (E)‐ and (Z)‐states over multiple cycles by alternating irradiation at 365 and 465 nm. Absorbance was measured at 351 nm with a 25 µM solution in DMSO, one cycle is 30 sec. […] 10 was pre‐illuminated at 365 nm for 30 min and then kept in the dark. (E)/(Z) ratios were measured by NMR. (j) Binding mode prediction of (E)‐ and (Z)‐10 to the VDR‐antagonist complex 2zxm (residues numbered according to [21]). (Z)‐10 (yellow) forms an agonist‐like binding mode with several polar interactions at both ends of the pocket. (E)‐10 (cyan) is also anchored at the distal end of the pocket by an H‐bond network with R302 and the D176 backbone but due to the (E)‐configuration, the β‐naphthoic acid residue protrudes deeper and the pentan‐3‐ol motif rotates away from H333/H423. Therefore, (E)‐10 lacks stabilizing/activating contacts with the H333/H423 region rationalizing its antagonist properties.
Gal4-hybrid reporter gene assays. Reporter gene assays were performed in HEK293T cells (German Collection of Microorganisms and Cell Culture GmbH, DSMZ) as reported previously using Gal4 -NR LBD fusion receptor plasmids each coding for the hinge region and LBD of the canonical isoform of the respective human nuclear receptor.[7,8] pFR-Luc (Stratagene, La Jolla, CA, USA) served as a reporter plasmid and pRL-SV40 (Promega, Madison, WI, USA) was used for normalization of transfection efficiency and test compound toxicity. Cells were cultured in Dulbecco’s modified Eagle’s medium (DMEM), high glucose supplemented with 10% fetal calf serum (FCS), sodium pyruvate (1 mM), penicillin (100 U/mL), and streptomycin (100 μg/mL) at 37 °C and 5% CO2, and seeded in 96-well plates (3 × 10^4 cells/well). After 24 h, the medium was changed to Opti -MEM without supplements, and cells were transiently transfected using Lipofectamine LTX reagent (Invitrogen, Carlsbad, CA, USA) according to the manufacturer’s protocol. Five hours after transfection, cells were incubated with the test compounds […]

[1] = photophysical characterization (photo‐switching, thermal relaxation); type: physicochemical; settings: room temperature (∼21°C); pre‐illuminated at 365 nm for 30 min, then dark; (E)/(Z) ratios by NMR
Method: FIGURE 2 Development and characterization of the light‐activated vitamin D mimetic photo‐vitD (10). (a) Structure activity relationship of photo‐switchable VDR agonists 4–10. Compounds were tested in a cellular Gal4‐VDR hybrid reporter gene assay. Relative activation is normalized to the effect of 2 (1 µM) set as 100% activation. The (Z)‐states of the compounds were maintained with a Cell‐Disco [24] (370 nm). […] Data in agonist (EC50) and antagonist mode (IC50; vs. 0.3 µM 2) are shown for (E)‐ and (Z)‐10. The corresponding dose‐response curves are shown in (d). (b) Predicted binding mode of (E)‐7 (green) in the VDR ligand binding site (pdb ID 4g1d). […] (c) Predicted binding mode of (Z)‐10 (yellow) in the VDR ligand binding site. The altered regiochemistry conveys strong preference for the light‐induced (Z)‐configuration and the extended naphthoic acid motif enables a strong ionic contact to R302. (d) Dose‐response curves of (E)‐ (dark) and (Z)‐10 (370 nm) in the Gal4‐VDR reporter gene assay in agonist (top) and antagonist mode (bottom, with 0.3 µM calcitriol (2)). (Z)‐10 activated VDR; (E)‐10 and (Z)‐10 antagonized VDR activation by 0.3 µM calcitriol (2). (Z)‐10 was maintained with a Cell‐Disco [24] (370 nm). […] Absorbance was measured at 351 nm with a 25 µM solution in DMSO, one cycle is 30 sec. […] (E)/(Z) ratios were measured by NMR. […]

ASC52telo hTERT cells = experiment: in vitro osteogenesis model (ALP activity, von Kossa staining); type: cell-based, human; settings: osteogenic differentiation over 15 days, dark or Cell‐Disco (370 nm, 100 ms/10 s)
Method: FIGURE 3 Optical control of VDR activity with photo‐vitD (10). (a) 10 (1 µM) enabled light‐dependent in‐cell activation of VDR in a fluorescent (mCherry) reporter gene assay. Gray curve: dark; blue curve: Cell‐Disco (370 nm; 100 ms/10 s); yellow curve: dark for 10 h, then Cell‐Disco (370 nm); magenta curve: Cell‐Disco (370 nm) for 10 h, then Cell‐Disco (450 nm). Lines are the mean, shadows are S.E.M.; n = 6. (b–d) Phenotypic model of bone formation using human […] (ASC52telo hTERT cells) and cyclic treatment with dexamethasone, 2‐phospho‐L‐ascorbic acid, and glycerol 2‐phosphate over 15 days to induce osteogenesis. Alkaline phosphatase (ALP) activity (b) and von Kossa staining of hydroxyapatite (c; representative photomicrographs in d) were used as markers of osteogenesis. Experiments were performed in the dark (gray bars) and using a Cell‐Disco (370 nm, 100 ms/10 s; blue bars). Data are the mean±SD, n = 6. * p<0.05, ** p<0.01, *** p<0.001 (vs. respective dark or illuminated DMSO (diff.) ctrl or as indicated; ANOVA with Dunnett's multiple comparisons test).
Photo‐vitD (10) thus appeared suitable for application as tool for VDR control in complex phenotypic settings. […] Photo‐vitD (10) thus enabled bidirectional optical control of osteogenesis in cellulo based on its ability to switch between agonist and antagonist states. […]
experiment was repeated independently three times. CellDiscos[9] were used for pulsed irradiation at 370 nm or 450 nm to switch 10 between photostationary states. The live cells were assayed for fluorescence reporter intensity at multiple time points over 36 h. Fluorescence intensity (FI) was measured (λex 585/10 nm, λem 610/10 nm) in bottom reading mode with a Tecan Spark Cyto (Tecan Deutschland GmbH).
Fold FI was obtained by dividing the mean F I of a test sample by the mean FI of the untreated control of the respective measurement (time point).
In vitro osteogenesis model. […] Absorbance was measured at 410 nm for 60 min every 5 min with an increase in absorbance reflecting phosphatase activity (nmol/min). For quantification via linear […]

[2] = (Z)‐state maintained with Cell‐Disco (370 nm), read-out: VDR modulation light-activated (Z): EC50
[3] = dark‐adapted (E)‐state, read-out: VDR modulation dark (E): EC50

SMILES | EC50 (VDR; [2]) | EC50 (VDR; [3]) | effect on osteogenesis (ALP activity, von Kossa staining positive area) (ASC52telo hTERT cells) | other results
CCCc1cc(C(O)(CC)CC)ccc1-c1ccc(/N=N\c2ccc3cc(C(=O)O)ccc3c2)cc1C [(Z)‐10] | – | – | resembled the effects of calcitriol with weaker efficacy | thermal relaxation half‐life [1]: 29 h
CCCc1cc(C(O)(CC)CC)ccc1-c1ccc(/N=N/c2ccc3[nH]c(=O)[nH]c3c2)cc1C [compound 9] | – | – | – | VDR modulation light-activated (Z): activation in words (VDR; (Z)‐state, Cell‐Disco (370 nm), 10 μM, inactive = no statistically significant activation at the indicated concentration): failed to activate VDR; VDR modulation dark (E): activation in words (VDR; dark‐adapted (E)‐state, 10 μM, inactive = no statistically significant activation at the indicated concentration): failed to activate VDR
CCCc1cc(C(O)(CC)CC)ccc1-c1cc(/N=N/c2ccc(CO)c(CO)c2)ccc1C [compound 4] | 140 ± 300 nM | 600 ± 200 nM | – | activity difference between the dark‐adapted (E)‐ and the light‐induced (Z)‐isomers (VDR; VDR agonism, (E) vs (Z)): 4 fold
C=C1/C(=C\C=C2/CCC[C@]3(C)[C@@H]([C@H](C)CCCC(C)(C)O)CC[C@@H]23)C[C@@H](O)C[C@@H]1O [compound 2, 1,25‐dihydroxyvitamin D, reference compound] | – | – | counteracted bone formation | –
CCCc1cc(C(O)(CC)CC)ccc1-c1ccc(/N=N/c2ccc3cc(C(=O)O)ccc3c2)cc1C [(E)‐10] | – | – | promoted osteogenesis | –

The next lines start with results.

EC50 (VDR; [2]) | EC50 (VDR; [3]) | SMILES | effect on osteogenesis (ALP activity, von Kossa staining positive area) (ASC52telo hTERT cells) | other results
920 ± 60 nM | 1000 ± 200 nM | CCC(O)(CC)c1ccc(-c2cc(/N=N/c3ccc(CO)c(CO)c3)ccc2C)c(C)c1 [compound 5] | – | –
310 ± 40 nM | 500 ± 100 nM | CCCc1cc(C(O)(CC)CC)ccc1-c1cc(/N=N/c2ccc(C(=O)O)c(O)c2)ccc1C [compound 7] | – | –
1100 ± 200 nM | 1800 ± 300 nM | CCCCc1cc(C(O)(CC)CC)ccc1-c1cc(/N=N/c2ccc(CO)c(CO)c2)ccc1C [compound 6] | – | –
1400 ± 200 nM | > 10000 nM | CCCc1cc(C(O)(CC)CC)ccc1-c1ccc(/N=N/c2ccc(C(=O)O)c(O)c2)cc1C [compound 8] | – | –
